# Target: T1, human Cot/Tpl2 kinase (Homo sapiens, UniProt P41279)
# T1 construct: human Cot/Tpl2 kinase construct encoding residues 30-398; 6His (N); made in house; host or cells: Sf9 insect cells, baculovirus system (BD Biosciences)
# Test: Tpl2/Cot kinase assay: GST-MEK1 phosphorylation detected by ELISA (DELFIA Eu)
# Format: biochemical
# Details: 0.4 nM Tpl2, 35 nM GST-MEK1, 50 uM ATP, 1 h at 30° C.
# Experimental: Sf9 cells expressing the kinase were lysed in 50 mM NaPhosphate pH=8; 300 mM NaCl; 5 mM imidazole; 0.1 mM EGTA; 25 mM beta-glycerophosphate; 1% TX-100, 1% glycerol; 6 mM beta-mercaptoethanol and protease inhibitors. The lysate was clarified by centrifugation and was loaded onto a Ni-Sepharose column. The column was washed with 50 mM NaPhosphate pH=8; 300 mM NaCl; 15 mM imidazole; 1% glycerol; and 6 mM beta-mercaptoethanol. His-Tpl2 was eluted with 50 mM NaPhosphate pH=8; 300 mM NaCl; 250 mM imidazole; 1% glycerol; and 6 mM beta-mercaptoethanol. The eluted protein was further purified by size exclusion chromatography. Fractions corresponding to monomeric Tpl2 were then used in the assay.
# Tpl2/Cot activity was directly assayed using GST-MEK1 as a substrate. GST-MEK1 phosphorylation on serine residues 217 and 221 was detected by ELISA. 0.4 nM Tpl2 was incubated with 35 nM GST-MEK1 in a kinase reaction buffer containing 20 mM MOPS pH=7.2; 50 uM ATP; 20 mM MgCl2; 1 mM DTT; 25 mM β-glycerophosphate; 5 mM EGTA; and 1 mM sodium orthovanadate for 1 h at 30° C. The compounds of the inventions solubilized in 100% DMSO were pre-diluted in assay buffer so that the final concentration of DMSO in the reaction was 1%. The kinase reaction was carried out in 100 ul volume on 96 well plates. The kinase reaction was then stopped with the addition of 100 mM EDTA. […] After a 1 hour incubation at room temperature, the detection plate was washed 4 times with TBST (TBS+0.05% Tween 20) and then incubated for another hour at room temperature with anti phospho-MEK1 antibody (Cell Signaling) 1:1000 in 10 mM MOPS 7.5; 150 mM NaCl; 0.05% Tween 20; 0.1% Gelatin; 0.02% NaN3; and 1% BSA. The detection plate was washed again and incubated for 30 min with DELFIA Europium (Eu) labeled goat anti-rabbit IgG (Perkin-Elmer), 1:4000 in the same buffer used for the primary incubation. After a final wash, Eu detection solution was added to each well and the Eu signal was measured in a Wallac Victor^2 Multilabel Counter. IC50 calculations were performed using the XLfit software package (IDBS, Guildford, UK).
# T1 sequence (P41279 30-398): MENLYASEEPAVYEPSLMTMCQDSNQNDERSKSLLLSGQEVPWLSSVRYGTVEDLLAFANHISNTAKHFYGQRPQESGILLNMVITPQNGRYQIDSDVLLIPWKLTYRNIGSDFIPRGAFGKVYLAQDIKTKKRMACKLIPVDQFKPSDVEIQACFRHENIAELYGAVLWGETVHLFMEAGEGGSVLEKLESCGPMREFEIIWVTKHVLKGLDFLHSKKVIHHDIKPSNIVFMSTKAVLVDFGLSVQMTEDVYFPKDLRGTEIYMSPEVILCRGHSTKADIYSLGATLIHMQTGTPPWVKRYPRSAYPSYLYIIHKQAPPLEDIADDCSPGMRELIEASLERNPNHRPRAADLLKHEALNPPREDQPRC
row,IC50 [nM],SMILES
1,1100,"COc1cc(NCc2cccnc2)cc2c(Nc3ccc(F)c(Cl)c3)c(C#N)cnc12 [Example 28, 4-(3-Chloro-4-fluoro-phenylamino)-8-methoxy-6-[(pyridin-3-ylmethyl)-amino]-quinoline-3-carbonitrile]"
2,5200,"COc1cc(NCCN2CCOCC2)cc2c(Nc3ccc(F)c(Cl)c3)c(C#N)cnc12 [Example 29, 4-(3-Chloro-4-fluoro-phenylamino)-8-methoxy-6-(2-morpholin-4-yl-ethylamino)-quinoline-3-carbonitrile]"
3,130,"N#Cc1cnc2ccc(NCc3ccc[n+]([O-])c3)cc2c1Nc1ccc(F)c(Cl)c1 [Example 30, 4-(3-Chloro-4-fluoro-phenylamino)-6-[(1-oxy-pyridin-3-ylmethyl)-amino]-quinoline-3-carbonitrile]"
4,110,"Cc1cc(CNc2ccc3ncc(C#N)c(Nc4ccc(F)c(Cl)c4)c3c2)n[nH]1 [Example 31, 4-(3-Chloro-4-fluoro-phenylamino)-6-[(5-methyl-1 H-pyrazol-3-ylmethyl)-amino]-quinoline-3-carbonitrile]"
5,> 40000,"COc1cc(NCc2cccnc2)cc2c(Nc3ccc(C)c(O)c3)c(C#N)cnc12 [Example 32, 4-(3-Hydroxy-4-methyl-phenylamino)-8-methoxy-6-[(pyridin-3-ylmethyl)-amino]-quinoline-3-carbonitrile]"
6,200,"Cc1cc(CNc2ccc3ncc(C#N)c(Nc4ccc(F)c(Cl)c4)c3c2)n(C)n1 [Example 33, 4-(3-Chloro-4-fluoro-phenylamino)-6-[(2,5-dimethyl-2H-pyrazol-3-ylmethyl)-amino]-quinoline-3-carbonitrile]"
7,260,"N#Cc1cc(CNc2ccc3ncc(C#N)c(Nc4ccc(F)c(Cl)c4)c3c2)ccc1OCC(=O)O [Example 34, (4-{[4-(3-Chloro-4-fluoro-phenylamino)-3-cyano-quinolin-6-ylamino]-methyl}-2-cyano-phenoxy)-acetic acid]"
8,1800,"N#Cc1cnc2ccc(NCc3c[nH]nc3-c3cccs3)cc2c1Nc1ccc(F)c(Cl)c1 [Example 35, 4-(3-Chloro-4-fluoro-phenylamino)-6-[(3-thiophen-2-yl-1H-pyrazol-4-ylmethyl)-amino]-quinoline-3-carbonitrile]"
9,630,"N#Cc1cnc2ccc(NCc3ccccc3)cc2c1Nc1ccc(F)c(Cl)c1 [Example 36, 6-Benzylamino-4-(3-chloro-4-fluoro-phenylamino)-quinoline-3-carbonitrile]"
10,410,"N#Cc1cnc2ccc(NCc3cccnc3)cc2c1Nc1ccc(F)c(Cl)c1 [Example 37, 4-(3-Chloro-4-fluoro-phenylamino)-6-[(pyridin-3-ylmethyl)-amino]-quinoline-3-carbonitrile]"
11,2600,"Cc1nn(C)c(N2CCOCC2)c1CNc1ccc2ncc(C#N)c(Nc3ccc(F)c(Cl)c3)c2c1 [Example 38, 4-(3-Chloro-4-fluoro-phenylamino)-6-[(1,3-dimethyl-5-morpholin-4-yl-1H-pyrazol-4-ylmethyl)-amino]-quinoline-3-carbonitrile]"
12,11,"N#Cc1cnc2ccc(NCc3cccc[n+]3[O-])cc2c1Nc1ccc(F)c(Cl)c1 [Example 39, 4-(3-Chloro-4-fluoro-phenylamino)-6-[(1-oxy-pyridin-2-ylmethyl)-amino]-quinoline-3-carbonitrile]"
13,2400,"CC(C)(C)OC(=O)N1CCC[C@H]1CNc1ccc2ncc(C#N)c(Nc3ccc(F)c(Cl)c3)c2c1 [Example 40, 2-{[4-(3-Chloro-4-fluoro-phenylamino)-3-cyano-quinolin-6-ylamino]-methyl}-L-pyrrolidine-1-carboxylic acid tert-butyl ester]"
14,26800,CC(C)(C)OC(=O)COc1ccc(Br)cc1CNc1ccc2ncc(C#N)c(Nc3ccc(F)c(Cl)c3)c2c1 [Example 42]
15,15300,"N#Cc1cnc2ccc(NC[C@@H]3CCCN3)cc2c1Nc1ccc(F)c(Cl)c1 [Example 43, 4-(3-Chloro-4-fluoro-phenylamino)-6-[(L-pyrrolidin-2-ylmethyl)-amino]-quinoline-3-carbonitrile]"
16,3300,"N#Cc1ccc(OCC(=O)O)c(CNc2ccc3ncc(C#N)c(Nc4ccc(F)c(Cl)c4)c3c2)c1 [Example 44, (2-{[4-(3-Chloro-4-fluoro-phenylamino)-3-cyano-quinolin-6-ylamino]-methyl}-4-cyano-phenoxy)-acetic acid]"

row,IC50 [nM],SMILES
1,14700,"CC(C)(C)OC(=O)COc1ccc(C#N)cc1CNc1ccc2ncc(C#N)c(Nc3ccc(F)c(Cl)c3)c2c1 [Example 45, (2-{[4-(3-Chloro-4-fluoro-phenylamino)-3-cyano-quinolin-6-ylamino]-methyl)-4-cyano-phenoxy)-acetic acid tert-butyl ester]"
2,30000,"N#Cc1cnc2ccc(NC[C@H]3CCCN3)cc2c1Nc1ccc(F)c(Cl)c1 [Example 46, 4-(3-Chloro-4-fluoro-phenylamino)-6-[(D-pyrrolidin-2-ylmethyl)-amino]-quinoline-3-carbonitrile]"
3,13,"COc1cc(NCc2cnc[nH]2)cc2c(Nc3ccc(F)c(Cl)c3)c(C#N)cnc12 [Example 47, 4-(3-Chloro-4-fluoro-phenylamino)-6-[(3H-imidazol-4-ylmethyl)-amino]-8-methoxy-quinoline-3-carbonitrile]"
4,1500,"COCCOc1ccc(Br)cc1CNc1ccc2ncc(C#N)c(Nc3ccc(F)c(Cl)c3)c2c1 [Example 48, 6-[5-Bromo-2-(2-methoxy-ethoxy)-benzylamino]-4-(3-chloro-4-fluoro-phenylamino)-quinoline-3-carbonitrile]"
5,> 40000,"N#Cc1cnc2ccc(NCc3c[nH]c4c(F)c(F)c(F)c(F)c34)cc2c1Nc1ccc(F)c(Cl)c1 [Example 49, 4-(3-Chloro-4-fluoro-phenylamino)-6-[(4,5,6,7-tetrafluoro-1H-indol-3-ylmethyl)-amino]-quinoline-3-carbonitrile]"
6,200,"CS(=O)(=O)c1ccc(CNc2ccc3ncc(C#N)c(Nc4ccc(F)c(Cl)c4)c3c2)cc1 [Example 50, 4-(3-Chloro-4-fluoro-phenylamino)-6-(4-methanesulfonyl-benzylamino)-quinoline-3-carbonitrile]"
7,110,"COc1ncccc1CNc1ccc2ncc(C#N)c(Nc3ccc(F)c(Cl)c3)c2c1 [Example 51, 4-(3-Chloro-4-fluoro-phenylamino)-6-[(2-methoxy-pyridin-3-ylmethyl)-amino]-quinoline-3-carbonitrile]"
8,1500,"CC(C)(C)OC(=O)N1CCC(CNc2ccc3ncc(C#N)c(Nc4ccc(F)c(Cl)c4)c3c2)C1 (stereo not shown) [Example 52, 3-{[4-(3-Chloro-4-fluoro-phenylamino)-3-cyano-quinolin-6-ylamino]-methyl}-pyrrolidine-1-carboxylic acid tert-butyl ester]"
9,540,"N#Cc1cnc2ccc(NCc3cccc(O)c3)cc2c1Nc1ccc(F)c(Cl)c1 [Example 53, 4-(3-Chloro-4-fluoro-phenylamino)-6-(3-hydroxy-benzylamino)-quinoline-3-carbonitrile]"
10,1800,"N#Cc1cnc2ccc(NCc3ccccc3O)cc2c1Nc1ccc(F)c(Cl)c1 [Example 55, 4-(3-Chloro-4-fluoro-phenylamino)-6-(2-hydroxy-benzylamino)-quinoline-3-carbonitrile]"
11,3400,"CN(C)c1ccc(CNc2ccc3ncc(C#N)c(Nc4ccc(F)c(Cl)c4)c3c2)c(Br)c1 [Example 56, 6-(2-Bromo-4-dimethylamino-benzylamino)-4-(3-chloro-4-fluoro-phenylamino)-quinoline-3-carbonitrile]"
12,650,"COCCOc1ccc(C#N)cc1CNc1ccc2ncc(C#N)c(Nc3ccc(F)c(Cl)c3)c2c1 [Example 57, 4-(3-Chloro-4-fluoro-phenylamino)-6-[5-cyano-2-(2-methoxy-ethoxy)-benzylamino]-quinoline-3-carbonitrile]"
13,1100,"CCOCCOc1ccc(Br)c(CNc2ccc3ncc(C#N)c(Nc4ccc(F)c(Cl)c4)c3c2)c1 [Example 58, 6-[2-Bromo-5-(2-ethoxy-ethoxy)-benzylamino]-4-(3-chloro-4-fluoro-phenylamino)-quinoline-3-carbonitrile]"
14,> 40000,CCOCCOc1ccc2c(c1)CN(c1ccc3ncc(C#N)c(Nc4ccc(F)c(Cl)c4)c3c1)C2=N [Example 60]
15,810,"N#Cc1cnc2ccc(NCC3CCOCC3)cc2c1Nc1ccc(F)c(Cl)c1 [Example 61, 4-(3-Chloro-4-fluoro-phenylamino)-6-[(tetrahydro-pyran-4-ylmethyl)-amino]-quinoline-3-carbonitrile]"
